# Values quoted from earlier work, collected in patent US20090215859A1, “Compositions and methods for modulating dhr96” (priority 2004, published 2009).
# How the values were obtained:
# GAL4-USP fusion protein = target: T1, GAL4-USP fusion protein (Drosophila melanogaster, UniProt P20153+P34021); conditions: dependent on its EcR partner; cited from earlier work
# T1 construct: host or cells: tissues dissected from transgenic Drosophila larvae
# T1 sequence (P20153 239-498 limits assumed): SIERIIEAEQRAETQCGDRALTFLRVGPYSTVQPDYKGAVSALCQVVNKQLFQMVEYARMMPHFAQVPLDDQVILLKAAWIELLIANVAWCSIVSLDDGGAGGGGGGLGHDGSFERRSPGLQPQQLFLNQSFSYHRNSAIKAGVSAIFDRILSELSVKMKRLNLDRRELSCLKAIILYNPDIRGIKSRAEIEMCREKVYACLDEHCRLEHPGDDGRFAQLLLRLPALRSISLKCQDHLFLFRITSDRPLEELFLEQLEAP
# T1 sequence (P34021 1-878): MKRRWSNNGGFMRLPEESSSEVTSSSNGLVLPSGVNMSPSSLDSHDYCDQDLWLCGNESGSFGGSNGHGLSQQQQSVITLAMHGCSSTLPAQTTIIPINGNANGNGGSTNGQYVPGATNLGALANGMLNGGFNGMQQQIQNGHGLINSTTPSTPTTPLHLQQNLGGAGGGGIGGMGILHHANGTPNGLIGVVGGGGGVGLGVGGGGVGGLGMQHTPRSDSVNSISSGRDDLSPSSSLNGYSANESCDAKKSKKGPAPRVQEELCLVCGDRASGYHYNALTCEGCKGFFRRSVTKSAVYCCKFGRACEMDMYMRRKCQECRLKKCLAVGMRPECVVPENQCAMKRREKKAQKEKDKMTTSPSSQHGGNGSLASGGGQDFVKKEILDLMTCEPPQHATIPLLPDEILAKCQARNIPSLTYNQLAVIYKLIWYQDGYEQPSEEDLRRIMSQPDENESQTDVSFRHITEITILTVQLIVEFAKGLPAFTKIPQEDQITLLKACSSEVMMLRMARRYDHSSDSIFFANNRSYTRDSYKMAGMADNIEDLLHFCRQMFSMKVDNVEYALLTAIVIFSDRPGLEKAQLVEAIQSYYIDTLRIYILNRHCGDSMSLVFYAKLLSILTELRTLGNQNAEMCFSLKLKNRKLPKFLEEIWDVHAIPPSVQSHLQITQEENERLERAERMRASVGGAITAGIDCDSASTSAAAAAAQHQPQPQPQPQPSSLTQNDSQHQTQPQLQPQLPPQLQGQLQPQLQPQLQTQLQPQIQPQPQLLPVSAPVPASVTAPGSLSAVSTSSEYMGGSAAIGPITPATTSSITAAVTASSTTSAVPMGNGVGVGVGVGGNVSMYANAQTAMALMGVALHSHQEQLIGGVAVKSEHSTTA
# DHR38 = conditions: cultured larval organs; cited from earlier work
# PXR = target: T2, PXR (Homo sapiens, UniProt O75469); conditions: cited from earlier work
# T2 sequence (O75469 1-434): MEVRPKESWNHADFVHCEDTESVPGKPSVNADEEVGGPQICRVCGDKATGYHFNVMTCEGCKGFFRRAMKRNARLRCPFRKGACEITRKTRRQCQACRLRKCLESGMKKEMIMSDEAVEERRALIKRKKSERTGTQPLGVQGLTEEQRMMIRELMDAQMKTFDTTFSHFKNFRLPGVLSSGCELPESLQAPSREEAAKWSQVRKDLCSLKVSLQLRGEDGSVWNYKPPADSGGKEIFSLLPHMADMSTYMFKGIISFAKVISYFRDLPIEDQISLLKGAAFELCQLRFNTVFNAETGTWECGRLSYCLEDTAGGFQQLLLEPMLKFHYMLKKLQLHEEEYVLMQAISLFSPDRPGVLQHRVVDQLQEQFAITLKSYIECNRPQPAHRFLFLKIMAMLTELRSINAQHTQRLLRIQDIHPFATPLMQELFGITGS
SMILES,Activation of the GAL4-USP fusion protein (GAL4-USP fusion protein),Activation of DHR38 in the GAL4-LBD system (DHR38),Action on PXR (PXR)
CC(C)(O)CC[C@@H](O)[C@](C)(O)[C@H]1CC[C@@]2(O)C3=CC(=O)[C@@H]4C[C@@H](O)[C@@H](O)C[C@]4(C)[C@H]3CC[C@]12C [20-hydroxyecdysone],potent activator,not,–
COc1cc2c(cc1O)CCN[C@]21CS[C@@H]2c3c(OC(C)=O)c(C)c4c(c3[C@H](COC1=O)N1[C@@H]2[C@H]2c3c(cc(C)c(OC)c3O)C[C@@H]([C@@H]1O)N2C)OCO4 [ecteinascidin-743],–,–,antagonist
